From US20260274892A1, “MACROCYCLIC BROAD SPECTRUM ANTIBIOTICS” (RQx Pharmaceuticals, Inc., priority 2017, published 2026)

Assays:
[1] = test system: Methicillin Resistant Staphylococcus aureus strain USA 200; assay: Minimum inhibitory concentration (MIC), CLSI broth micro-dilution, S. aureus; assay type: cell-based; details: Table 6, MRSA USA 200, cation adjusted Mueller Hinton Broth + 0.002% Tween-80, 35° C., 22 hours
Summary of the method: (§1)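 Colonies grown 20 h at 35° C on Trypticase Soy agar (MRSA) or Luria agar (E. coli) were suspended in cation-adjusted Mueller Hinton broth with 0.002% Tween-80. Suspensions were added at OD600 0.0005 to 10-point twofold compound dilutions, then incubated 22 h at 35° C.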

[2] = test system: Escherichia coli ATCC 25922; assay: Minimum inhibitory concentration (MIC), CLSI broth micro-dilution, E. coli; assay type: cell-based; details: Table 6, cation adjusted Mueller Hinton Broth + 0.002% Tween-80, 35° C.
Summary of the method: as §1

[3] = Staphylococcus aureus, MRSA / USA200
[4] = Escherichia coli, ATCC25922, 22 h

MIC [1] [µM]	MIC ([2]; 22 hours) [µM]	MIC [1, 3] [µM]	MIC [2, 4] [µM]	Structure (SMILES)
0.036	0.29			CCCCCCCCCCCCCC(=O)N1C[C@H](N)CC1C(=O)N(C)[C@@H]1C(=O)N[C@@H](C)C(=O)N[C@H](C(=O)NCC#N)Cc2ccc(OCCN)c(c2)-c2cc1ccc2OCCN (mixture of isomers) [Compound 483, rac-(8S,11S,14S)-3,18-bis(2-aminoethoxy)-14-[(4-amino-1-tetradecanoyl-pyrrolidine-2-carbonyl)-methyl-amino]-N-(cyanomethyl)-11-methyl-10,13-dioxo-9,12-diazatricyclo[13.3.1.12,6]icosa-1(18),2(20),3,5,15(19),16-hexaene-8-carboxamide]
		0.016	0.13	Cc1nc(-c2ccc(C(C)(C)C)cc2O)nc(C)c1C(=O)N[C@@H](CCN)C(=O)N(C)[C@@H]1C(=O)N[C@@H](C)C(=O)N[C@H](C(=O)NCC#N)Cc2ccc(OCCN)c(c2)-c2cc1ccc2OCCN (racemic) [Compound 298, rac-(8S,11S,14S)-3,18-bis(2-aminoethoxy)-N-(cyanomethyl)-11-methyl-14-[methyl-[rac-(2S)-4-amino-2-[[2-(4-tert-butyl-2-hydroxy-phenyl)-4,6-dimethyl-pyrimidine-5-carbonyl]amino]butanoyl]amino]-10,13-dioxo-9,12-diazatricyclo[13.3.1.12,6]icosa-1(18),2(20),3,5,15(19),16-hexaene-8-carboxamide]
		0.023	0.38	Cc1nc(-c2ccc(C(C)(C)C)cc2)c(N(C)C)cc1C(=O)N[C@@H](CCN)C(=O)N(C)[C@@H]1C(=O)N[C@@H](C)C(=O)N[C@H](C(=O)NCC#N)Cc2ccc(OCCN)c(c2)-c2cc1ccc2OCCN (racemic) [Compound 408, rac-(8S,11S,14S)-3,18-bis(2-aminoethoxy)-N-(cyanomethyl)-11-methyl-14-[methyl-[rac-(2S)-4-amino-2-[[6-(4-tert-butylphenyl)-5-(dimethylamino)-2-methyl-pyridine-3-carbonyl]amino]butanoyl]amino]-10,13-dioxo-9,12-diazatricyclo[13.3.1.12,6]icosa-1(18),2(20),3,5,15(19),16-hexaene-8-carboxamide]
		0.023	0.5	C[C@@H]1NC(=O)[C@@H](N(C)C(=O)[C@H](CCN)NC(=O)c2ccc(-c3ccc(C(C)(C)C)cc3)nc2N)c2ccc(OCCN)c(c2)-c2cc(ccc2OCCN)C[C@@H](C(=O)NCC#N)NC1=O (racemic) [Compound 412, rac-(8S,11S,14S)-3,18-bis(2-aminoethoxy)-N-(cyanomethyl)-11-methyl-14-[methyl-[rac-(2S)-4-amino-2-[[2-amino-6-(4-tert-butylphenyl)pyridine-3-carbonyl]amino]butanoyl]amino]-10,13-dioxo-9,12-diazatricyclo[13.3.1.12,6]icosa-1(18),2(20),3,5,15(19),16-hexaene-8-carboxamide]
		0.016	0.53	Cc1nc(-c2cccc(C(C)(C)C)c2)nc(C)c1C(=O)N[C@@H](CCN)C(=O)N(C)[C@@H]1C(=O)N[C@@H](C)C(=O)N[C@H](C(=O)NCC#N)Cc2ccc(OCCN)c(c2)-c2cc1ccc2OCCN (racemic) [Compound 263, rac-(8S,11S,14S)-3,18-bis(2-aminoethoxy)-N-(cyanomethyl)-11-methyl-14-[methyl-[rac-(2S)-4-amino-2-[[2-(3-tert-butylphenyl)-4,6-dimethyl-pyrimidine-5-carbonyl]amino]butanoyl]amino]-10,13-dioxo-9,12-diazatricyclo[13.3.1.12,6]icosa-1(18),2(20),3,5,15(19),16-hexaene-8-carboxamide]
		0.071	1.1	CCCCCCCc1ccc(C(=O)N[C@@H](CCN)C(=O)N(C)[C@@H]2C(=O)N[C@@H](C3CC3)C(=O)N[C@H](C(=O)NCC#N)Cc3ccc(OCCN)c(c3)-c3cc2ccc3OCCN)c(C)c1 (racemic) [Compound 478, rac-(8S,11S,14S)-3,18-bis(2-aminoethoxy)-N-(cyanomethyl)-11-cyclopropyl-14-[methyl-[rac-(2S)-4-amino-2-[(4-heptyl-2-methyl-benzoyl)amino]butanoyl]amino]-10,13-dioxo-9,12-diazatricyclo[13.3.1.12,6]icosa-1(18),2(20),3,5,15(19),16-hexaene-8-carboxamide]
		0.017	0.14	CCCc1ccc(-c2ccc(C(=O)N[C@@H](CCN)C(=O)N(C)[C@@H]3C(=O)N[C@@H](C)C(=O)N[C@H](C(=O)NCC#N)Cc4ccc(OCCN)c(c4)-c4cc3ccc4OCCN)c(C)n2)cc1 (racemic) [Compound 208, rac-(8S,11S,14S)-3,18-bis(2-aminoethoxy)-N-(cyanomethyl)-11-methyl-14-[methyl-[rac-(2S)-4-amino-2-[[2-methyl-6-(4-propylphenyl)pyridine-3-carbonyl]amino]butanoyl]amino]-10,13-dioxo-9,12-diazatricyclo[13.3.1.12,6]icosa-1(18),2(20),3,5,15(19),16-hexaene-8-carboxamide]
		0.036	0.24	CCCCCCCCCCCCCC(=O)N1C[C@H](N)CC1C(=O)N(C)[C@@H]1C(=O)N[C@@H](C)C(=O)N[C@H](C(=O)NCC#N)Cc2ccc(OCCN)c(c2)-c2cc1ccc2OCCN (mixture of isomers) [Compound 482, rac-(8S,11S,14S)-3,18-bis(2-aminoethoxy)-14-[(4-amino-1-tetradecanoyl-pyrrolidine-2-carbonyl)-methyl-amino]-N-(cyanomethyl)-11-methyl-10,13-dioxo-9,12-diazatricyclo[13.3.1.12,6]icosa-1(18),2(20),3,5,15(19),16-hexaene-8-carboxamide]
		0.027	5.4	Cc1nc(-c2ccc(C(C)(C)C)cc2)ncc1C(=O)N[C@@H](CNC(=N)N)C(=O)N(C)[C@@H]1C(=O)N[C@@H](C)C(=O)N[C@H](C(=O)NCC#N)Cc2ccc(OCCN)c(c2)-c2cc1ccc2OCCN (racemic) [Compound 462, rac-(8S,11S,14S)-3,18-bis(2-aminoethoxy)-N-(cyanomethyl)-11-methyl-14-[methyl-[rac-(2S)-2-[[2-(4-tert-butylphenyl)-4-methyl-pyrimidine-5-carbonyl]amino]-3-guanidino-propanoyl]amino]-10,13-dioxo-9,12-diazatricyclo[13.3.1.12,6]icosa-1(18),2(20),3,5,15(19),16-hexaene-8-carboxamide]
		0.017	0.13	Cc1nc(-c2ccc(C3(C)CC3)cc2)ncc1C(=O)N[C@@H](CCN)C(=O)N(C)[C@@H]1C(=O)N[C@@H](C)C(=O)N[C@H](C(=O)NCC#N)Cc2ccc(OCCN)c(c2)-c2cc1ccc2OCCN (racemic) [Compound 224, rac-(8S,11S,14S)-3,18-bis(2-aminoethoxy)-N-(cyanomethyl)-11-methyl-14-[methyl-[rac-(2S)-4-amino-2-[[4-methyl-2-[4-(1-methylcyclopropyl)phenyl]pyrimidine-5-carbonyl]amino]butanoyl]amino]-10,13-dioxo-9,12-diazatricyclo[13.3.1.12,6]icosa-1(18),2(20),3,5,15(19),16-hexaene-8-carboxamide]
		0.025	0.13	Cc1nc(-c2ccc(C(C)(C)C)cc2)ccc1C(=O)N[C@@H](CCN)C(=O)N(C)[C@@H]1C(=O)N[C@@H](C)C(=O)N[C@H](C(=O)NCC#N)Cc2ccc(OCCN)c(c2)-c2cc1ccc2OCCN (racemic) [Compound 206, rac-(8S,11S,14S)-3,18-bis(2-aminoethoxy)-N-(cyanomethyl)-11-methyl-14-[methyl-[rac-(2S)-4-amino-2-[[6-(4-tert-butylphenyl)-2-methyl-pyridine-3-carbonyl]amino]butanoyl]amino]-10,13-dioxo-9,12-diazatricyclo[13.3.1.12,6]icosa-1(18),2(20),3,5,15(19),16-hexaene-8-carboxamide]
		0.094	0.38	Cc1nc(-c2ccc(C(C)(C)C)cc2)c(O)cc1C(=O)N[C@@H](CCN)C(=O)N(C)[C@@H]1C(=O)N[C@@H](C)C(=O)N[C@H](C(=O)NCC#N)Cc2ccc(OCCN)c(c2)-c2cc1ccc2OCCN (racemic) [Compound 404, rac-(8S,11S,14S)-3,18-bis(2-aminoethoxy)-N-(cyanomethyl)-11-methyl-14-[methyl-[rac-(2S)-4-amino-2-[[6-(4-tert-butylphenyl)-5-hydroxy-2-methyl-pyridine-3-carbonyl]amino]butanoyl]amino]-10,13-dioxo-9,12-diazatricyclo[13.3.1.12,6]icosa-1(18),2(20),3,5,15(19),16-hexaene-8-carboxamide]
		0.024	1	CCc1ccc(-c2ncc(C(=O)N[C@@H](CCN)C(=O)N(C)[C@@H]3C(=O)N[C@@H](C)C(=O)N[C@H](C(=O)NCC#N)Cc4ccc(OCCN)c(c4)-c4cc3ccc4OCCN)c(C)n2)c2ccccc12 (racemic) [Compound 221, rac-(8S,11S,14S)-3,18-bis(2-aminoethoxy)-N-(cyanomethyl)-11-methyl-14-[methyl-[rac-(2S)-4-amino-2-[[2-(4-ethyl-1-naphthyl)-4-methyl-pyrimidine-5-carbonyl]amino]butanoyl]amino]-10,13-dioxo-9,12-diazatricyclo[13.3.1.12,6]icosa-1(18),2(20),3,5,15(19),16-hexaene-8-carboxamide]
